PubChem BioAssay AID1963862 (Molecular Pharmacology Branch, DTP, NCI, 2024)

System: KRAS patient-derived spheroids with HUVEC/MSC, viability
Assay: Anticancer human tumor 941728-121-R-J1-PDC patient-derived lung adenocarcinoma cell line growth inhibition [KRAS2]
Details: for IC50: curve of first compound; for viability, T/C: stronger effect = lower value
Method in brief: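 Combination screen of spheroid viability in tumor-cell co-cultures with endothelial (HUVEC) and mesenchymal stem cell stroma. Each agent was tested in half-log dilutions, topping at clinical Cmax or at 10 microM without a known Cmax.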

[1] = second compound 0.1 µM, first compound 0.0316 µM
[2] = second compound 0.1 µM, first compound 0.1 µM
[3] = second compound 0.1 µM, first compound 0.316 µM
[4] = second compound 0.1 µM, first compound 1 µM
[5] = second compound 0.1 µM, first compound 3.16 µM
[6] = second compound 0.1 µM, first compound 10 µM
[7] = second compound 0.316 µM, first compound 0.0316 µM
[8] = second compound 0.316 µM, first compound 0.1 µM
[9] = second compound 0.316 µM, first compound 0.316 µM
[10] = second compound 0.316 µM, first compound 1 µM
[11] = second compound 0.316 µM, first compound 3.16 µM
[12] = second compound 0.316 µM, first compound 10 µM
[13] = second compound 1 µM, first compound 0.0316 µM
[14] = second compound 1 µM, first compound 0.1 µM
[15] = second compound 1 µM, first compound 0.316 µM
[16] = second compound 1 µM, first compound 1 µM
[17] = second compound 1 µM, first compound 3.16 µM
[18] = second compound 1 µM, first compound 10 µM
[19] = second compound 3.16 µM, first compound 0.0316 µM
[20] = second compound 3.16 µM, first compound 0.1 µM
[21] = second compound 3.16 µM, first compound 0.316 µM
[22] = second compound 3.16 µM, first compound 1 µM
[23] = second compound 3.16 µM, first compound 3.16 µM
[24] = second compound 3.16 µM, first compound 10 µM
[25] = second compound 10 µM, first compound 0.0316 µM
[26] = second compound 10 µM, first compound 0.1 µM
[27] = second compound 10 µM, first compound 0.316 µM
[28] = second compound 10 µM, first compound 1 µM
[29] = second compound 10 µM, first compound 3.16 µM
[30] = second compound 10 µM, first compound 10 µM
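Note: spheroids exposed to agents for seven days before readout.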

Structure (SMILES) | IC50 (second compound 0.1 µM) | IC50 (second compound 0.316 µM) | IC50 (second compound 1 µM) | IC50 (second compound 3.16 µM) | IC50 (second compound 10 µM) | viability, T/C [1] | viability, T/C [2] | viability, T/C [3] | viability, T/C [4] | viability, T/C [5] | viability, T/C [6] | viability, T/C [7] | viability, T/C [8] | viability, T/C [9] | viability, T/C [10] | viability, T/C [11] | viability, T/C [12] | viability, T/C [13] | viability, T/C [14] | viability, T/C [15] | further results
COC(=O)c1ccc2c(C(=Nc3ccc(N(C)C(=O)CN4CCN(C)CC4)cc3)c3ccccc3)c(O)[nH]c2c1 + COc1cc2nc(C)nc(NC(C)c3cc(N)cc(C(F)(F)F)c3)c2cc1OC1CCOC1 | 10000 nM | < 31.6 nM | < 31.6 nM | < 31.6 nM | < 31.6 nM | 108% | 45.3% | 46.4% | 70.2% | 46.2% | 48.5% | 45.5% | 43.4% | 40.5% | 49.7% | 42.7% | 42.9% | 42.4% | 40.9% | 37% | viability, T/C [16]: 41.6%; viability, T/C [17]: 35.1%; viability, T/C [18]: 42.2%; viability, T/C [19]: 43.5%; viability, T/C [20]: 36.7%; viability, T/C [21]: 41.7%; viability, T/C [22]: 42.6%; viability, T/C [23]: 22.6%; viability, T/C [24]: 0.49%; viability, T/C [25]: 26.2%; viability, T/C [26]: 21.7%; viability, T/C [27]: 21.1%; viability, T/C [28]: 16.9%; viability, T/C [29]: 0.62%; viability, T/C [30]: 1.04%
COc1cc(Nc2ncc3c(n2)-c2ccc(Cl)cc2C(c2c(F)cccc2OC)=NC3)ccc1C(=O)O + COc1cc2nc(C)nc(NC(C)c3cc(N)cc(C(F)(F)F)c3)c2cc1OC1CCOC1 | < 31.6 nM | < 31.6 nM | < 31.6 nM | < 31.6 nM | < 31.6 nM | 52.4% | 44.5% | 44.1% | 47.7% | 42.1% | 42.1% | 41% | 42.3% | 44.1% | 40.2% | 40.7% | 37.3% | 34.7% | 38% | 36.5% | viability, T/C [16]: 38.2%; viability, T/C [17]: 33.9%; viability, T/C [18]: 31.4%; viability, T/C [19]: 34.2%; viability, T/C [20]: 32.6%; viability, T/C [21]: 36.6%; viability, T/C [22]: 30.6%; viability, T/C [23]: 23%; viability, T/C [24]: 19.7%; viability, T/C [25]: 12.4%; viability, T/C [26]: 14.3%; viability, T/C [27]: 7.81%; viability, T/C [28]: 4.39%; viability, T/C [29]: 6.63%; viability, T/C [30]: 3.43%
COc1cc2nccc(Oc3ccc(NC(=O)C4(C(=O)Nc5ccc(F)cc5)CC4)cc3)c2cc1OC + COc1cc2nc(C)nc(NC(C)c3cc(N)cc(C(F)(F)F)c3)c2cc1OC1CCOC1 | 144 nM | < 31.6 nM | < 31.6 nM | < 31.6 nM | < 31.6 nM | 57.4% | 55.2% | 38.9% | 25.9% | 31.4% | 57.4% | 34.7% | 41.7% | 27.6% | 17.3% | 21.7% | 35.6% | 25.5% | 29.6% | 23.3% | viability, T/C [16]: 9.41%; viability, T/C [17]: 17.2%; viability, T/C [18]: 29.5%; viability, T/C [19]: 30.9%; viability, T/C [20]: 35.1%; viability, T/C [21]: 19.7%; viability, T/C [22]: 3.69%; viability, T/C [23]: 0.11%; viability, T/C [24]: 35.2%; viability, T/C [25]: 13.3%; viability, T/C [26]: 2.98%; viability, T/C [27]: 1.83%; viability, T/C [28]: 0.25%; viability, T/C [29]: 0.13%; viability, T/C [30]: 15.1%
